Measured values taken from PubChem BioAssay (NCI).
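Growth conditions: 96-well plates. Treatment: test compound, 48 hours, 5 concentrations. Analysis: linear interpolation between bracketing concentrations; unreached endpoints set to highest concentration. The concentration for full growth arrest is given as TGI.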

These compounds were tested on RXF-631 renal (assay: growth of human tumour cells (NCI), 48 h).
`Nc1nc([O-])c2c(n1)[n+](C1OC(CO)C(O)C1O)cn2CCO` (stereo not given) gave a TGI of over 100 µM.
`CN=C(SC)N(C)c1nc(=[N+](C)C)ss1` was tested, and the TGI was 16.4 µM.
Compound `C[Si](C)(C)OC1CC(=O)OC1n1cc(F)c(=O)[nH]c1=O` (stereo not given) has a TGI of over 100 µM.

What follows are compounds tested on M19-MEL melanoma (assay: growth of human tumour cells (NCI), 48 h).
Work on `O=c1cc(-c2ccc(Oc3ccccc3)cc2)[nH]c2cc3c(cc12)OCO3` yielded a TGI of over 100 µM.
For `CCOC(=O)CC(C)C1(C(=O)OCC)CCCCC1=O` (stereo not given), the TGI was over 100 µM.
`CC(=O)O[C@H]1C(=O)[C@@]2(C)C(C(OC(=O)c3ccccc3)[C@]3(O)CC(OC(=O)C(O)C(NC(=O)c4ccc(C(F)(F)F)cc4)c4ccccc4)C(C)=C1C3(C)C)[C@]1(OC(C)=O)CO[C@@H]1C[C@@H]2O` (stereo not given in full) showed a TGI of 0.271 µM.
For `COC(=O)CC1N=C(NC#N)N(CCc2c[nH]c3ccccc23)C1=O` (stereo not given), the TGI was over 100 µM.
With `Nc1nc([O-])c2c(n1)[n+](C1OC(CO)C(O)C1O)cn2CCO` (stereo not given) the TGI was over 100 µM.
`O=Cc1ccccc1COC(=O)c1cc(C(=O)OCc2ccccc2C=O)c(C(=O)OCc2ccccc2C=O)cc1C(=O)OCc1ccccc1C=O` showed a TGI of over 100 µM.
`CN(C)CC1CCCC(CN(C)C)C1OC(=O)c1ccccc1` (stereo not given) was tested, and the TGI was over 100 µM.
`Cc1cc(N(CCC#N)CCC#N)ccc1/C=C(\NC(=O)/C=C/c1ccccc1)C(N)=O` showed a TGI of over 100 µM.
`CCCCCCCCCCCC(=O)OCC(C[As](=O)(O)O)OC(=O)CCCCCCCCCCC` (stereo not given) gave a TGI of 15.8 µM.
`C[Si](C)(C)OC1CC(=O)OC1n1cc(F)c(=O)[nH]c1=O` (stereo not given) gave a TGI of over 100 µM.

These compounds were tested on XF 498 CNS (assay: growth of human tumour cells (NCI), 48 h).
In the case of `O=c1cc(-c2ccc(Oc3ccccc3)cc2)[nH]c2cc3c(cc12)OCO3`, the TGI is reported as over 100 µM.
`CCOC(=O)CC(C)C1(C(=O)OCC)CCCCC1=O` (stereo not given) was tested, and the TGI was over 100 µM.
In the case of `CC(=O)O[C@H]1C(=O)[C@@]2(C)C(C(OC(=O)c3ccccc3)[C@]3(O)CC(OC(=O)C(O)C(NC(=O)c4ccc(C(F)(F)F)cc4)c4ccccc4)C(C)=C1C3(C)C)[C@]1(OC(C)=O)CO[C@@H]1C[C@@H]2O` (stereo not given in full), the TGI is reported as 3.09 µM.
`COC(=O)CC1N=C(NC#N)N(CCc2c[nH]c3ccccc23)C1=O` (stereo not given) was tested, and the TGI was over 100 µM.
`Nc1nc([O-])c2c(n1)[n+](C1OC(CO)C(O)C1O)cn2CCO` (stereo not given) gave a TGI of over 100 µM.
`O=Cc1ccccc1COC(=O)c1cc(C(=O)OCc2ccccc2C=O)c(C(=O)OCc2ccccc2C=O)cc1C(=O)OCc1ccccc1C=O` showed a TGI of over 100 µM.
With `O=C1c2ccsc2C(=O)c2sc(CO)cc21` the TGI was 1.14 µM.
In the case of `Cc1cc(N(CCC#N)CCC#N)ccc1/C=C(\NC(=O)/C=C/c1ccccc1)C(N)=O`, the TGI is reported as over 100 µM.
With `CCCCCCCCCCCC(=O)OCC(C[As](=O)(O)O)OC(=O)CCCCCCCCCCC` (stereo not given) the TGI was 7.28 µM.
Compound `CN=C(SC)N(C)c1nc(=[N+](C)C)ss1` has a TGI of over 100 µM.
`C[Si](C)(C)OC1CC(=O)OC1n1cc(F)c(=O)[nH]c1=O` (stereo not given) gave a TGI of over 100 µM.

Each compound was assayed on HOP-18 NSCLC (assay: growth of human tumour cells (NCI), 48 h).
Work on `CCOC(=O)CC(C)C1(C(=O)OCC)CCCCC1=O` (stereo not given) yielded a TGI of over 100 µM.
In the case of `CC(=O)O[C@H]1C(=O)[C@@]2(C)C(C(OC(=O)c3ccccc3)[C@]3(O)CC(OC(=O)C(O)C(NC(=O)c4ccc(C(F)(F)F)cc4)c4ccccc4)C(C)=C1C3(C)C)[C@]1(OC(C)=O)CO[C@@H]1C[C@@H]2O` (stereo not given in full), the TGI is reported as 31 µM.
With `Cn1c(O)c(C(=O)NC2CCCCC2)c(=O)n(C)c1=S` the TGI was 9.63 µM.
`Nc1nc([O-])c2c(n1)[n+](C1OC(CO)C(O)C1O)cn2CCO` (stereo not given) was tested, and the TGI was over 100 µM.
In the case of `O=Cc1ccccc1COC(=O)c1cc(C(=O)OCc2ccccc2C=O)c(C(=O)OCc2ccccc2C=O)cc1C(=O)OCc1ccccc1C=O`, the TGI is reported as over 100 µM.
For `O=C1c2ccsc2C(=O)c2sc(CO)cc21`, the TGI was 0.113 µM.
Compound `CN(C)CC1CCCC(CN(C)C)C1OC(=O)c1ccccc1` (stereo not given) has a TGI of over 100 µM.
`CCCCCCCCCCCC(=O)OCC(C[As](=O)(O)O)OC(=O)CCCCCCCCCCC` (stereo not given) showed a TGI of 14.1 µM.
In the case of `C[Si](C)(C)OC1CC(=O)OC1n1cc(F)c(=O)[nH]c1=O` (stereo not given), the TGI is reported as over 100 µM.

Each compound was assayed on LXFL 529 NSCLC (assay: growth of human tumour cells (NCI), 48 h).
Work on `O=c1cc(-c2ccc(Oc3ccccc3)cc2)[nH]c2cc3c(cc12)OCO3` yielded a TGI of over 100 µM.
For `CCOC(=O)CC(C)C1(C(=O)OCC)CCCCC1=O` (stereo not given), the TGI was over 100 µM.
Compound `COC(=O)CC1N=C(NC#N)N(CCc2c[nH]c3ccccc23)C1=O` (stereo not given) has a TGI of over 100 µM.
In the case of `Cn1c(O)c(C(=O)NC2CCCCC2)c(=O)n(C)c1=S`, the TGI is reported as 16 µM.
Work on `Nc1nc([O-])c2c(n1)[n+](C1OC(CO)C(O)C1O)cn2CCO` (stereo not given) yielded a TGI of over 100 µM.
Work on `O=Cc1ccccc1COC(=O)c1cc(C(=O)OCc2ccccc2C=O)c(C(=O)OCc2ccccc2C=O)cc1C(=O)OCc1ccccc1C=O` yielded a TGI of over 100 µM.
Compound `O=C1c2ccsc2C(=O)c2sc(CO)cc21` has a TGI of 0.304 µM.
For `CN(C)CC1CCCC(CN(C)C)C1OC(=O)c1ccccc1` (stereo not given), the TGI was over 100 µM.
With `Cc1cc(N(CCC#N)CCC#N)ccc1/C=C(\NC(=O)/C=C/c1ccccc1)C(N)=O` the TGI was over 100 µM.
`CCCCCCCCCCCC(=O)OCC(C[As](=O)(O)O)OC(=O)CCCCCCCCCCC` (stereo not given) was tested, and the TGI was 5.21 µM.
`CN=C(SC)N(C)c1nc(=[N+](C)C)ss1` gave a TGI of over 100 µM.
For `C[Si](C)(C)OC1CC(=O)OC1n1cc(F)c(=O)[nH]c1=O` (stereo not given), the TGI was over 100 µM.
